Source: BindingDB's records for doi:10.1021/jm00143a003 (1982)

Biological target: Spermine synthase (Rattus norvegicus)
Assay: Inhibitory activity against spermine synthase

IC50: 80 µM
SMILES: C[S+](C[C@H]1O[C@H](n2cnc3c(N)ncnc32)[C@H](O)[C@@H]1O)C(CCN)CCCCCN (stereo partly specified)
